Laboratory results taken from US20260176277A1, “COMPOUNDS AND COMPOSITIONS AS eIF4E INHIBITORS AND USES THEREOF” (Ribometrix, Inc., priority 2022, published 2026).

How the values were obtained:
human eIF4E protein = molecular target: T1, human eIF4E protein (Homo sapiens, UniProt P06730); experiment: Biochemical competitive binding assay (TR-FRET competition); conditions: recombinant 6xHIS-tagged human eIF4E, EDA-m7GDP-ATTO-647N probe; read-out: hEIF4E TR-FRET IC50
T1 construct: purchased Novus NBP-45314
T1 sequence (P06730 whole entry): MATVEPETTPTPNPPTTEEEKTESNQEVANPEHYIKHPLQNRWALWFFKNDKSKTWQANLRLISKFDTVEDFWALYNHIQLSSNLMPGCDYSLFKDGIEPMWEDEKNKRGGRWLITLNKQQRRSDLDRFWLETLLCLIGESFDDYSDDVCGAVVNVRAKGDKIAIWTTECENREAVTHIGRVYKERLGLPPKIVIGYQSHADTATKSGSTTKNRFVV
Description: The potencies of compounds binding to human eIF4E protein were measured using a 384-well time-resolved fluorescence resonance energy transfer (TR-FRET) competition assay. The assay was performed in assay buffer containing 50 mM HEPES pH 7.5, 100 mM KCl, 0.02% Tween-20, and 0.1 mg/mL bovine serum albumin (BSA). The reaction volume was 10 μL and each reaction contained 4 nM recombinant 6×HIS-tagged human eIF4E protein (Novus, NBP-45314), 5 nM EDA-m7GDP-ATTO-647N (Jena Bioscience, NU-827-647N), 2.5 nM Europium conjugated Anti-6×HIS antibody (PerkinElmer, AD0402) and varying concentrations of compound. The final DMSO concentration was 1%.
Compounds were prepared using 11-point, 4-fold serial dilutions in DMSO and 100 nL of diluted compounds were transferred to 384-well assay-ready plates. Recombinant human eIF4E protein at 2× final concentration (8 nM) was pre-incubated with Eu-anti-6×HIS antibody at 2× final concentration (5 nM) for 5 minutes, then 5 μL of the protein solution was added to assay-ready plates. The protein/compound mix was incubated for 15 minutes, after which 5 μL of a solution containing EDA-m7GDP-ATTO-647N probe at 2× final concentration (10 nM) was added. After a subsequent 15-minute incubation, time-resolved fluorescence of assay plates was measured using a Clariostar Plus microplate reader (BMG Labtech) and TR-FRET values were calculated by taking a ratio of the 665 to 620 wavelength signals. After normalization to the average of DMSO control and maximum inhibition control wells, concentration-response data were plotted and standard 4-parameter curve fitting (PEI Signals) was utilized to determine IC50 values.

[1] = tested on: cap-dependent translation in Flp-In-293 reporter cells; experiment: Cellular cap-dependent translation inhibition dual luciferase assay (DLA); type: cell-based; conditions: Homo sapiens, ratio of Fluc (cap-dependent) to Rluc (IRES) luminescence, 24 hours of compound treatment

Row | SMILES | IC50 (human eIF4E protein) | IC50 [1]
1 | Cc1nc2c(c(=O)n1CCOc1ccc(Cl)cc1-c1cccc(C(=O)O)c1)CN(C)CC2 [Compound 1] | < 0.4 µM | 
2 | Cc1nc2c(c(=O)n1CCOc1ccc(Cl)cc1-c1ccc(C(=O)O)cc1)CN(C)CC2 [Compound 2] | 10 to 100 µM | 
3 | CN1CCc2ncn(CCOc3ccc(Cl)cc3-c3cccc(C(=O)O)c3)c(=O)c2C1 [Compound 3] | 10 to 100 µM | 
4 | CCN1CCc2nc(C)n(CCOc3ccc(Cl)cc3-c3cccc(C(=O)O)c3)c(=O)c2C1 [Compound 4] | < 0.4 µM | 10 to 20 µM
5 | Cc1nc2c(c(=O)n1CCOc1ccc(Cl)cc1-c1cccc(C(=O)O)c1)CN(C1CCOCC1)CC2 [Compound 5] | 0.4 to 10 µM | > 20 µM
6 | COCCN1CCc2nc(C)n(CCOc3ccc(Cl)cc3-c3cccc(C(=O)O)c3)c(=O)c2C1 [Compound 6] | 0.4 to 10 µM | 
7 | CC(=O)N1CCc2nc(C)n(CCOc3ccc(Cl)cc3-c3cccc(C(=O)O)c3)c(=O)c2C1 [Compound 7] | 0.4 to 10 µM | 
8 | Cc1nc2c(c(=O)n1CCOc1ccc(Cl)cc1-c1ccnc3c(C(=O)O)csc13)CN(C)CC2 [Compound 8] | < 0.4 µM | < 10 µM
9 | Cc1nc2c(c(=O)n1CCOc1ccc(Cl)cc1-c1ccnc(C(=O)O)c1)CN(C)CC2 [Compound 9] | < 0.4 µM | > 20 µM
10 | COCCN1CCc2nc(C)n(CCOc3ccc(Cl)cc3-c3ccnc(C(=O)O)c3)c(=O)c2C1 [Compound 10] | < 0.4 µM | > 20 µM
11 | Cc1nc2c(c(=O)n1CCOc1ccc(Cl)cc1-c1cccc(C(=O)O)c1)CN(C1COC1)CC2 [Compound 11] | 10 to 100 µM | > 20 µM
12 | Cc1nc2c(c(=O)n1CCOc1ccc(Cl)cc1-c1cccc(C(=O)O)c1F)CN(C)CC2 [Compound 12] | < 0.4 µM | > 20 µM
13 | Cc1nc2c(c(=O)n1CCOc1ccc(Cl)cc1-c1ccnc(C(=O)NS(C)(=O)=O)c1)CN(C)CC2 [Compound 13] | < 0.4 µM | > 20 µM
14 | Cc1nc2c(c(=O)n1CCOc1ccc(Cl)cc1-c1ccnn3c(C(=O)O)ccc13)CN(C)CC2 [Compound 14] | < 0.4 µM | < 10 µM
15 | Cc1nc2c(c(=O)n1CCOc1ccc(Cl)cc1-c1ccnc(-c3n[nH]c(=O)o3)c1)CN(C)CC2 [Compound 15] | 0.4 to 10 µM | > 20 µM
16 | Cc1nc2c(c(=O)n1CCOc1ccc(Br)cc1-c1cccc(C(=O)O)c1)CN(C)CC2 [Compound 16] | < 0.4 µM | > 20 µM

Row | SMILES | IC50 (human eIF4E protein) | IC50 [1]
17 | Cc1nc2c(c(=O)n1CCOc1cnc(Cl)cc1-c1ccnc(C(=O)O)c1)CN(C)CC2 [Compound 17] | 0.4 to 10 µM | > 20 µM
18 | Cc1cc(-c2cc(Cl)ccc2OCCn2c(C)nc3c(c2=O)CN(c2ccccc2F)CC3)c2scc(C(=O)O)c2n1 [Compound 18] | < 0.4 µM | < 10 µM
19 | Cc1cc(-c2cc(Cl)ccc2OCCn2c(C)nc3c(c2=O)CN(c2cc(F)ccc2F)CC3)c2scc(C(=O)O)c2n1 [Compound 19] | < 0.4 µM | < 10 µM
20 | Cc1cc(-c2cc(Cl)ccc2OCCn2c(C)nc3c(c2=O)CN(Cc2ccncc2)CC3)c2scc(C(=O)O)c2n1 [Compound 20] | < 0.4 µM | < 10 µM
21 | Cc1cc(-c2cc(Cl)ccc2OCCn2c(C)nc3c(c2=O)CN(c2ccnc4ccncc24)CC3)c2scc(C(=O)O)c2n1 [Compound 21] | < 0.4 µM | < 10 µM
22 | Cc1cc(-c2cc(Cl)ccc2OCCn2c(C)nc3c(c2=O)CN(c2ccn4ncnc4c2)CC3)c2scc(C(=O)O)c2n1 [Compound 22] | < 0.4 µM | 10 to 20 µM
23 | COc1cc(N2CCc3nc(C)n(CCOc4ccc(Cl)cc4-c4cc(C)nc5c(C(=O)O)csc45)c(=O)c3C2)ccn1 [Compound 23, 7-[5-chloranyl-2-[2-[6-(2-methoxy-4-pyridyl)-2-methyl-4-oxidanylidene-7,8-dihydro-5H-pyrido[4,3-d]pyrimidin-3-yl]ethoxy]phenyl]-5-methyl-thieno[3,2-b]pyridine-3-carboxylic acid; 2,2,2-tris(fluoranyl) acetic acid] | < 0.4 µM | < 10 µM
24 | Cc1cc(-c2cc(Cl)ccc2OCCn2c(C)nc3c(c2=O)CN(CC(F)(F)F)CC3)c2scc(C(=O)O)c2n1 [Compound 24, 7-[5-chloranyl-2-[2-[2-methyl-4-oxidany-lidene-6-[2,2,2-tris(fluoranyl)ethyl]-7,8-dihydro-5H-pyrido[4,3-d]pyrimidin-3-yl]ethoxy]phenyl]-5-methyl-thieno[3,2-b]pyridine-3-carboxylic acid; 2,2,2-tris(fluoranyl) acetic acid] | < 0.4 µM | < 10 µM
25 | Cc1cc(-c2cc(Cl)ccc2OCCn2c(C)nc3c(c2=O)CN(CC(F)(F)F)CC3)c2scc(C(=O)NS(C)(=O)=O)c2n1 [Compound 25, 7-[5-chloranyl-2-[2-[2-methyl-4-oxidanylidene-6-[2,2,2-tris(fluoranyl)ethyl]-7,8-dihydro-5H-pyrdo[4,3-d]pyrimidin-3-yl]ethoxy]phenyl]-5-methyl-N-methylsulfonyl-thieno[3,2-b]pyridine-3-carboxamide; 2,2,2-tris(fluoranyl) acetic acid] | < 0.4 µM | < 10 µM
26 | Cc1cc(-c2cc(Cl)ccc2OCCn2c(C)nc3c(c2=O)CN(C)CC3)c2ccc(C(=O)O)n2n1 [Compound 26, 4-[5-chloranyl-2-[2-[2,6-di(methyl)-4-oxidanylidene-7,8-dihydro-5H-pyrido[4,3-d]pyrimidin-3-yl]ethoxy]phenyl]-2-methyl-pyrrolo[1,2-b]pyridazine-7-carboxylic acid] | < 0.4 µM | < 10 µM
27 | Cc1cc(-c2cc(Cl)ccc2OCCn2c(C)nc3c(c2=O)CN(C)CC3)c2ccc(C(=O)NS(C)(=O)=O)n2n1 [Compound 27, 4-[5-chloranyl-2-[2-[2,6-di(methyl)-4-oxidanylidene-7,8-dihydro-5H-pyrido[4,3-d]pyrimidin-3-yl]ethoxy]phenyl]-2-methyl-N-methylsulfonyl-pyrrolo[1,2-b]pyridazine-7-carboxamide] | < 0.4 µM | < 10 µM
28 | Cc1cc(-c2cc(Cl)ccc2OCCn2c(C)nc3c(c2=O)CN(C)CC3)c2scc(C(=O)NS(C)(=O)=O)c2n1 [Compound 28, 7-[5-chloranyl-2-[2-[2,6-di(methyl)-4-oxidanylidene-7,8-dihydro-5H-pyrido[4,3-d]pyrimidin-3-yl]ethoxy]phenyl]-5-methyl-N-methylsulfonyl-thieno[3,2-b]pyridine-3-carboxamide; 2,2,2-tris(fluoranyl)acetic acid] | < 0.4 µM | < 10 µM
29 | Cc1cc(-c2cc(Cl)ccc2OCCn2c(C)nc3c(c2=O)CN(C)CC3)c2scc(C(=O)O)c2n1 [Compound 29, 7-[5-chloranyl-2-[2-[2,6-di(methyl)-4-oxidanylidene-7,8-dihydro-5H-pyrido[4,3-d]pyrimidin-3-yl]ethoxy]phenyl]-5-methyl-thieno[3,2-b]pyridine-3-carboxylic acid] | < 0.4 µM | < 10 µM
30 | Cc1cc(-c2cc(Cl)ccc2OCCn2c(C)nc3c(c2=O)CN(C)CCO3)c2scc(C(=O)O)c2n1 [Compound 30, 7-[5-chloranyl-2-[2-[2,6-di(methyl)-4-oxidanylidene-7,8-dihydro-5H-pyrimido[5,4-f][1,4]oxazepin-3-yl]ethoxy]phenyl]-5-methyl-thieno[3,2-b]pyridine-3-carboxylic acid; 2,2,2-tris(fluorenyl) acetic acid] | < 0.4 µM | < 10 µM
31 | Cc1nc2c(c(=O)n1CC#Cc1ccc(Cl)cc1-c1ccnc3c(C(=O)O)csc13)CN(C)CC2 [Compound 31] | 10 to 100 µM | > 20 µM
